Structures can show the parent of a compound that is named as a salt. ± gives the standard deviation of the averaged measurements.
System: SK-ES-1
Assay: relative viability vs DMSO control (72 h) (fraction); higher = more viable cells
Procedure, shortened: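 Sarcoma cell lines went into 384-well plates at densities chosen to reach 80–90% confluence. After 24 h, each well received 2.5 µl of serially diluted compound, with source plates running from 10 mM to 0.0002 mM, and the plates were kept 72 h at 37 °C, 5% CO2, alongside 0.1% DMSO vehicle and a 5 µM positive control. Relative viability was derived from ATPLite readings as percent growth and averaged over up to triplicate wells. The data were then rescaled so that 1 stands for full and 0 for none.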

Structure (SMILES)	relative viability (0.00017 µM)	relative viability (0.00051 µM)	relative viability (0.00152 µM)	relative viability (0.00457 µM)	relative viability (0.01372 µM)	relative viability (0.04115 µM)	relative viability (0.1235 µM)	relative viability (0.3704 µM)	relative viability (1.111 µM)	relative viability (3.333 µM)	relative viability (10 µM)
CC[C@H](Nc1ncnc2[nH]cnc12)c1nc2cccc(F)c2c(=O)n1-c1ccccc1 [Idelalisib]	1.06 ± 0.041	1.06 ± 0.06	1.03 ± 0.024	1.08 ± 0.018	1.08 ± 0.015	1.08 ± 0.051	1.04 ± 0.042	1.02 ± 0.021	1.01 ± 0.056	0.905 ± 0.052	0.827 ± 0.01
COc1cccc2c1C(=O)c1c(O)c3c(c(O)c1C2=O)C[C@@](O)(C(=O)CO)C[C@@H]3O[C@H]1C[C@H](N)[C@H](O)[C@H](C)O1 [Doxorubicin Hydrochloride]	0.999 ± 0.033	1.05 ± 0.074	1 ± 0.057	0.991 ± 0.085	0.604 ± 0.065	0.307 ± 0.025	0.123 ± 0.014	0.0254 ± 0.0066	0.000533 ± 0.00072	-0.000167 ± 0.00091	0.00357 ± 0.00093
Cc1ccc(NC(=O)c2ccc(CN3CCN(C)CC3)cc2)cc1Nc1nc(-c2cccnc2)cs1 [Masitinib]	1 ± 0.018	0.9842 ± 0.008	0.999 ± 0.032	1.06 ± 0.013	0.981 ± 0.033	1.01 ± 0.017	1 ± 0.042	0.93 ± 0.05	0.817 ± 0.039	0.5209 ± 0.0016	0.138 ± 0.012
Cn1cnc2c(F)c(Nc3ccc(Br)cc3F)c(C(=O)NOCCO)cc21 [Binimetinib]	1.03 ± 0.019	1.02 ± 0.018	0.988 ± 0.021	0.984 ± 0.058	0.95 ± 0.028	0.957 ± 0.045	0.983 ± 0.036	0.923 ± 0.015	0.945 ± 0.05	0.893 ± 0.027	0.861 ± 0.077
CC(=O)Nc1cccc(-n2c(=O)n(C3CC3)c(=O)c3c(Nc4ccc(I)cc4F)n(C)c(=O)c(C)c32)c1 [Trametinib]	1.03 ± 0.035	1.04 ± 0.025	0.987 ± 0.031	0.99 ± 0.028	0.937 ± 0.077	0.984 ± 0.063	0.976 ± 0.031	0.969 ± 0.048	0.962 ± 0.05	0.948 ± 0.059	0.923 ± 0.017
Cc1cc(Nc2ncnc3ccc(NC4=NC(C)(C)CO4)cc23)ccc1Oc1ccn2ncnc2c1 [Tucatinib]	1.07 ± 0.025	1.04 ± 0.043	1.06 ± 0.039	1.1 ± 0.022	1.13 ± 0.064	1.06 ± 0.059	1.08 ± 0.079	1.06 ± 0.019	1.01 ± 0.011	0.98 ± 0.023	0.883 ± 0.017
CCN1CCN(Cc2ccc(Nc3ncc(F)c(-c4cc(F)c5nc(C)n(C(C)C)c5c4)n3)nc2)CC1 [Abemaciclib]	1.03 ± 0.032	1.04 ± 0.027	0.995 ± 0.031	1 ± 0.052	0.922 ± 0.055	0.728 ± 0.018	0.481 ± 0.035	0.413 ± 0.012	0.38 ± 0.0066	0.346 ± 0.01	0.00807 ± 0.00042
Cc1nc(-c2cn3c(n2)-c2ccc(-c4cnn(C(C)(C)C(N)=O)c4)cc2OCC3)n(C(C)C)n1 [Taselisib]	0.973 ± 0.069	0.984 ± 0.066	0.985 ± 0.013	0.994 ± 0.028	0.899 ± 0.074	0.761 ± 0.038	0.541 ± 0.045	0.41 ± 0.012	0.348 ± 0.017	0.288 ± 0.012	0.22127 ± 0.00015
C[C@@H]1COCCN1c1cc(-c2ccnn2C)c2ccnc(-c3ccn[nH]3)c2n1	1.03 ± 0.031	1.05 ± 0.03	1.03 ± 0.052	1.09 ± 0.055	1.05 ± 0.039	0.856 ± 0.024	0.562 ± 0.037	0.285 ± 0.0067	0.156 ± 0.0046	0.101 ± 0.0046	0.112 ± 0.0035
CO[C@H]1C[C@@H]2CC[C@@H](C)[C@@](O)(O2)C(=O)C(=O)N2CCCC[C@H]2C(=O)O[C@H]([C@H](C)C[C@@H]2CC[C@@H](OP(C)(C)=O)[C@H](OC)C2)CC(=O)[C@H](C)/C=C(\C)[C@@H](O)[C@@H](OC)C(=O)[C@H](C)C[C@H](C)/C=C/C=C/C=C/1C [Ridaforolimus]	1.03 ± 0.059	1.04 ± 0.033	0.978 ± 0.051	0.806 ± 0.055	0.675 ± 0.037	0.643 ± 0.037	0.601 ± 0.014	0.555 ± 0.026	0.56 ± 0.0043	0.545 ± 0.029	0.52 ± 0.011
CCc1cc2c(cc1N1CCC(N3CCOCC3)CC1)C(C)(C)c1[nH]c3cc(C#N)ccc3c1C2=O [Alectinib]	1 ± 0.048	1.04 ± 0.023	1.07 ± 0.025	1.07 ± 0.025	1.02 ± 0.031	1.03 ± 0.02	1.06 ± 0.084	1.01 ± 0.068	1.08 ± 0.056	1.04 ± 0.035	0.915 ± 0.068
COCc1c(-c2cc3cc(C)cc(OC)c3s2)c2c(N)ncnn2c1CN1CCNC(=O)C1 [Rogaratinib]	1.04 ± 0.043	1.03 ± 0.044	1.02 ± 0.035	1.03 ± 0.049	1.07 ± 0.045	1.05 ± 0.065	0.982 ± 0.062	0.97 ± 0.011	0.848 ± 0.075	0.659 ± 0.027	0.463 ± 0.03
C[C@@H]1CCN(C(=O)CC#N)C[C@@H]1N(C)c1ncnc2[nH]ccc12 [Tofacitinib]	1 ± 0.032	1.05 ± 0.059	1.01 ± 0.023	1.03 ± 0.049	1.04 ± 0.046	1.01 ± 0.056	0.997 ± 0.056	1.01 ± 0.049	0.985 ± 0.081	1.03 ± 0.056	1.02 ± 0.06
O=C(Cc1ccc(-c2ccc(OCCN3CCOCC3)cc2)cn1)NCc1ccccc1 [KX2-391]	1.07 ± 0.02	1.11 ± 0.035	1.05 ± 0.059	1.07 ± 0.026	1.05 ± 0.032	0.235 ± 0.039	0.024 ± 0.0039	0.0226 ± 0.00042	0.0192 ± 0.0041	0.0176 ± 0.0029	0.0223 ± 0.0021
C[C@@H](c1ccc2nccn2c1)n1nnc2ncc(-c3cnn(C)c3)nc21 [Volitinib]	1.02 ± 0.025	1.01 ± 0.06	1.05 ± 0.031	1.07 ± 0.021	1.05 ± 0.047	1.04 ± 0.033	1.04 ± 0.051	1.03 ± 0.036	1.05 ± 0.1	1.05 ± 0.058	1.01 ± 0.083
C[C@]1(O)C[C@@H](c2nc(-c3ccc4ccc(-c5ccccc5)nc4c3)c3c(N)nccn32)C1 [Linsitinib]	1.05 ± 0.039	1.05 ± 0.034	1.08 ± 0.019	1.07 ± 0.051	1.03 ± 0.067	0.967 ± 0.038	0.75 ± 0.026	0.479 ± 0.042	0.341 ± 0.013	0.308 ± 0.013	0.21 ± 0.0051
COc1cc2c(Oc3ccc4[nH]c(C)cc4c3F)ncnc2cc1OCCCN1CCCC1 [Cediranib]	1.04 ± 0.014	1.07 ± 0.058	1.1 ± 0.02	1.06 ± 0.033	1.06 ± 0.066	1.07 ± 0.015	1.062 ± 0.0014	1.07 ± 0.064	0.877 ± 0.033	0.763 ± 0.019	0.133 ± 0.049
CC(C)(C)c1cc(NC(=O)Nc2ccc(-c3cn4c(n3)sc3cc(OCCN5CCOCC5)ccc34)cc2)no1 [Quizartinib]	0.995 ± 0.028	1.05 ± 0.05	1.08 ± 0.014	1.1 ± 0.036	1.08 ± 0.037	1.04 ± 0.011	1.08 ± 0.035	1.1 ± 0.069	0.904 ± 0.033	0.674 ± 0.049	0.594 ± 0.056
COc1cc2/c(=N/c3ccc(Br)cc3F)nc[nH]c2cc1OCC1CCN(C)CC1 [Vandetanib]	1 ± 0.03	0.992 ± 0.024	1.02 ± 0.037	1.033 ± 0.0099	1.06 ± 0.035	0.989 ± 0.051	1.008 ± 0.0093	0.917 ± 0.033	0.762 ± 0.032	0.389 ± 0.0099	0.0169 ± 0.0022

From the supplement of paper PMC10883282
